Reference: paper PMC12593396 (2025)

System: 3WJ (PAGE) (DNA, junction) CGGAACGGCACTCG/CGAGTGCAGCGTGG/CCACGCTCGTTCCG
Assay: PAGE junction assembly
Details: 10 mM NaCl, 1x TB

Compound	binding	binding (0.1 to 5 equivalents)
C(=Nc1ccc(Cc2ccc(N=Cc3ccccn3)cc2)cc1)c1ccccn1.C(=Nc1ccc(Cc2ccc(N=Cc3ccccn3)cc2)cc1)c1ccccn1.C(=Nc1ccc(Cc2ccc(N=Cc3ccccn3)cc2)cc1)c1ccccn1.[Ni+2].[Ni+2]	yes	
[Pt+2].[Pt+2].c1cncc(Oc2ccc(Oc3cccnc3)cc2)c1.c1cncc(Oc2ccc(Oc3cccnc3)cc2)c1.c1cncc(Oc2ccc(Oc3cccnc3)cc2)c1.c1cncc(Oc2ccc(Oc3cccnc3)cc2)c1		yes
